In patent publication EP1311531B1, “STEROID DERIVED ANTIBIOTICS” (Brigham Young University, priority 2000, dated 2002):
≈ marks a conversion by molar mass, not a printed value. Read-outs that look alike come from different tables or passages of the source.

Columns and labels:
[1] = tested on: Pseudomonas aeruginosa ATCC 27853; experiment: MIC and MBC measurement; type: cell-based
Procedure: (§1) General: Microorganisms. Reference strains were purchased from the American Type Culture Collection (Rockville, MD) or Bactrol disks from Difeo Laboratories (Detroit, MI). […] Bacterial strains were maintained on Mueller-Hinton agar plates, and Candida albicans was maintained on Sabouraud Dextrose agar plates.
(§2) Aliquots (20 mL) of the homogeneous solution were then poured in sterile plastic petri dishes (100 x 15 mm, Fisher Scientific). Solutions of compounds were made by dissolving the HCl salt of the respective compound into an appropriate amount of deionized and sterilized water followed by microfiltration.
(§3) Aliquots of 1 mL of the suspension were added to test tubes containing 1 mL TSB and incrementally varied concentrations of cholic acid derivatives and/or erythromycin or novobiocin. […] Additionally, an alliquot from each of the samples showing no measurable turbidity was subcultured on TSA plates (alliquots were diluted to provide fewer than 300 CFU). Colonies that grew on the subculture after overnight incubation were counted and the number of CFU/mL in the samples were calculated. The calculated values were compared to the number of CFU/mL in the original inoculum.

[2] = tested on: Pseudomonas aeruginosa ATCC 27853; experiment: Sensitization to erythromycin, novobiocin or rifampicin (permeabilization, FIC); type: cell-based; details: Table 7; P. aureginosa (ATCC 27853); with erythromycin
Procedure: (§4) FICs can be performed by checkerboard titrations of compounds in one dimension of a microtiter plate, and of antibiotics in the other dimension, for example. The FIC is calculated by looking at the impact of one antibiotic on the MIC of the other and vice versa. […] Preferably, an FIC of less than 0.5 is obtained for synergism. As used herein, FIC can be determined as follows: FIC = (MIC(compound in combination))/(MIC(compound alone)) + (MIC(antibiotic in combination))/(MIC(antibiotic alone)) [formula]
(§5) Aliquots of 1 mL of the suspension were added to test tubes containing 1 mL TSB and incrementally varied concentrations of cholic acid derivatives and/or erythromycin or novobiocin. In the sensitization experiments, erythromycin or novobiocin were added 15 minutes later than the cholic acid derivatives. The samples were subjected to stationary incubation at 37°C for 24 hours. Sample turbidity was determined by measuring absorption at 760 nm (HP 8453 UV-Visible Chemstation, Hewlett Packard). Additionally, an alliquot from each of the samples showing no measurable turbidity was subcultured on TSA plates (alliquots were diluted to provide fewer than 300 CFU). Colonies that grew on the subculture after overnight incubation were counted and the number of CFU/mL in the samples were calculated. The calculated values were compared to the number of CFU/mL in the original inoculum.
Concentrations of 0.5, 1.0 or 3.0 µg/mL of these antibiotics were used, and the concentrations of the cholic acid derivatives required to inhibit bacterial growth of Gram-negative strains were determined.

[3] = tested on: E. coli (ATCC 10798); experiment: MIC and MBC measurement; type: cell-based, Escherichia coli
Procedure: as §1, §2, §3

[4] = tested on: E. coli (ATCC 10798); experiment: Sensitization to erythromycin or novobiocin (outer membrane permeabilization, FIC); type: cell-based, Escherichia coli; details: for concentration required to lower the MIC of erythromycin from 70 µg/mL to 1 µg/mL: Table 2; for (a) Concentration required to lower the MIC of erythromycin from 70 to 1 µg/mL / (b) MBC with 1 µg/mL erythromycin / (d) Concentration required to lower the MIC of novobiocin from >500 to 1 µg/mL / FIC^c (FIC values with erythromycin) / FIC^c (FIC values with novobiocin): Table 9, Escherichia coli (ATCC 10798); for MBC: Escherichia coli
Procedure: as §4, §5
They were also tested for the ability to permeabilize the outer membrane of Gram-negative bacteria, causing sensitization to hydrophobic antibiotics that cannot cross the outer membrane. The permeabilization of the outer membrane was measured using erythromycin and novobiocin.

[5] = tested on: Escherichia coli ATCC 25922; experiment: MIC and MBC measurement; type: cell-based; details: Escherichia coli, ATCC25922, antibiotic alone; E. coli (ATCC 25922); read-out: MIC
Text: General: Microorganisms. Reference strains were purchased from the American Type Culture Collection (Rockville, MD) or Bactrol disks from Difeo Laboratories (Detroit, MI). The following specific ATCC strains were used: 10798 Escherichia coli, 25922 Escherichia coli, 13883 Klebsiella pneumoniae, 27853 Pseudomonas aeruginosa, 14028 Salmonella typhimurium, 29212 Enterococcus faecalis, 25923 Staphylococcus aureus, 19615 Streptococcus pyogenes, and 90028 Candida albicans. Bacterial strains were maintained on Mueller-Hinton agar plates, and Candida albicans was maintained on Sabouraud Dextrose agar plates.
Tryptic soy broth (TSB) was made by dissolving 27.5 grams of tryptic soy broth without dextrose (DIFCO Laboratories) in 1 liter of deionized water and sterilizing at 121 °C for 15 minutes. Solid agar (TSA) plates were made by dissolving 6.4 grams of tryptic soy broth and 12 grams of agar (purified grade, Fischer Scientific) in 800 mL of deionized water and sterilizing at 121 °C for 20 minutes. Aliquots (20 mL) of the homogeneous solution were then poured in sterile plastic petri dishes (100 x 15 mm, Fisher Scientific). Solutions of compounds were made by dissolving the HCl salt of the respective compound into an appropriate amount of deionized and sterilized water followed by microfiltration.
as §5, with “inoculum. […]” for “inoculum.”

[6] = ATCC27853, Table 6, P. aureginosa (ATCC 27853)
[7] = Escherichia coli, ATCC10798, Table 1, E. coli (ATCC 10798), read-out: MIC
[8] = E. coli (ATCC 10798), with erythromycin
[9] = ATCC27853, antibiotic alone, P. aureginosa (ATCC 27853)
[10] = Escherichia coli, ATCC10798, antibiotic alone, E. coli (ATCC 10798), read-out: MIC
[11] = ATCC10798, Table 9, Escherichia coli (ATCC 10798), read-out: MBC
[12] = ATCC10798, Table 9, Escherichia coli (ATCC 10798), read-out: MIC
[13] = Escherichia coli, ATCC10798, Table 1, E. coli (ATCC 10798), read-out: MBC
[14] = Table 9, Escherichia coli (ATCC 10798)
[15] = ATCC10798, Table 2, E. coli (ATCC 10798), with erythromycin

Row | SMILES | MIC [3, 7] [µg/mL] | concentration required to lower the MIC of erythromycin from 70 µg/mL to 1 µg/mL [4, 8] [µg/mL] | MBC [3, 11] [µg/mL] | MIC [3, 12] [µg/mL] | (a) Concentration required to lower the MIC of erythromycin from 70 to 1 µg/mL [4] [µg/mL] | (b) MBC with 1 µg/mL erythromycin [4] [µg/mL] | (d) Concentration required to lower the MIC of novobiocin from >500 to 1 µg/mL [4] [µg/mL] | FIC^c (FIC values with erythromycin) [4] | FIC^c (FIC values with novobiocin) [4] | further results
1 | C[C@H](CCCN(C)Cc1ccccc1)[C@H]1CC[C@H]2[C@@H]3[C@H](OCCCCN)C[C@@H]4C[C@H](OCCCCN)CC[C@]4(C)[C@H]3C[C@H](OCCCCN)[C@]12C [Compound 3] | 6 (≈ 8.44 µM) | 1.5 |  |  |  |  |  |  |  | MIC [1, 6]: 16 µg/mL (≈ 22.5 µM); concentration required to lower the MIC of erythromycin from 240 µg/mL to 5 µg/mL [2]: 6 µg/mL
2 | CC[C@H]1OC(=O)[C@H](C)[C@@H](O[C@H]2C[C@@](C)(OC)[C@@H](O)[C@H](C)O2)[C@H](C)[C@@H](O[C@@H]2O[C@H](C)C[C@H](N(C)C)[C@H]2O)[C@](C)(O)C[C@@H](C)C(=O)[C@H](C)[C@@H](O)[C@]1(C)O [erythromycin, reference compound] |  |  |  |  |  |  |  |  |  | MIC [1, 9]: 240 µg/mL (≈ 327 µM); MIC [5]: 30 µg/mL (≈ 40.9 µM); MIC [3, 10]: 70 µg/mL (≈ 95.4 µM)
3 | COCCC[C@@H](C)[C@H]1CC[C@H]2[C@@H]3[C@H](OCCCN)C[C@@H]4C[C@H](OCCCN)CC[C@]4(C)[C@H]3C[C@H](OCCCN)[C@]12C [Compound 111] |  |  | 33 (≈ 56.9 µM) | 30 (≈ 51.7 µM) | 1.0 | 20 | 2.0 | 0.048 | 0.069 | 
4 | CO[C@@H]1[C@@H](OC(N)=O)[C@@H](O)[C@H](Oc2ccc3c(O)c(NC(=O)c4ccc(O)c(CC=C(C)C)c4)c(=O)oc3c2C)OC1(C)C [novobiocin, reference compound] |  |  |  |  |  |  |  |  |  | MIC [1, 9]: > 500 µg/mL; MIC [3, 10]: > 500 µg/mL
5 | CC(O)[C@H]1CC[C@H]2[C@@H]3[C@H](OCCCN)C[C@@H]4C[C@H](OCCCN)CC[C@]4(C)[C@H]3C[C@H](OCCCN)[C@]12C (stereo partly shown) [Compound 11] | 140 (≈ 267 µM) | 40 |  |  | 20 | 180 | 40 | 0.16 | 0.29 | MBC [3, 13]: > 160 µg/mL; MBC [3, 14]: >160 µg/mL; MIC [3, 14]: 140 µg/mL (≈ 267 µM); MBC [4, 15]: > 160 µg/mL; MBC ([4]; ATCC10798, Table 3, E. coli (ATCC 10798), with novobiocin): 140 µg/mL
6 | C[C@H](CO)[C@H]1CC[C@H]2[C@@H]3[C@H](OCCCN)C[C@@H]4C[C@H](OCCCN)CC[C@]4(C)[C@H]3C[C@H](OCCCN)[C@]12C [Compound 108] |  |  | 140 (≈ 260 µM) | 70 (≈ 130 µM) | 4.0 | 140 | 12 | 0.071 | 0.17 | 
7 | C[C@H](CCO)[C@H]1CC[C@H]2[C@@H]3[C@H](OCCCN)C[C@@H]4C[C@H](OCCCN)CC[C@]4(C)[C@H]3C[C@H](OCCCN)[C@]12C [Compound 109] |  |  | 120 (≈ 217 µM) | 70 (≈ 127 µM) | 4.0 | 80 | 15 | 0.071 | 0.22 | 
8 | CCCCCCCCOCCC[C@@H](C)[C@H]1CC[C@H]2[C@@H]3[C@H](OCCCN)C[C@@H]4C[C@H](OCCCN)CC[C@]4(C)[C@H]3C[C@H](OCCCN)[C@]12C [Compound 9] | 3 (≈ 4.42 µM) | 3 |  |  | 3.0 | 3.0 |  | 1.0 |  | MIC [1, 6]: 8 µg/mL (≈ 11.8 µM); concentration required to lower the MIC of erythromycin from 240 µg/mL to 5 µg/mL [2]: 5 µg/mL; MBC [3, 13]: 10 µg/mL (≈ 14.7 µM); MBC [3, 14]: 10 µg/mL (≈ 14.7 µM); MIC [3, 14]: 3.0 µg/mL (≈ 4.42 µM); MBC [4, 15]: 3 µg/mL
9 | C[C@H](CCCN(C)Cc1ccccc1)[C@H]1CC[C@H]2[C@@H]3[C@H](OCCN)C[C@@H]4C[C@@H](OCCN)CC[C@]4(C)[C@H]3C[C@H](OCCN)[C@]12C [Compound 8] | 46 (≈ 73.4 µM) | 10 |  |  |  |  |  |  |  | MIC [1, 6]: 50 µg/mL (≈ 79.7 µM); concentration required to lower the MIC of erythromycin from 240 µg/mL to 5 µg/mL [2]: 40 µg/mL
10 | CCCCCOCCC[C@@H](C)[C@H]1CC[C@H]2[C@@H]3[C@H](OCCCN)C[C@@H]4C[C@H](OCCCN)CC[C@]4(C)[C@H]3C[C@H](OCCCN)[C@]12C [Compound 113] |  |  | 5 (≈ 7.86 µM) | 3 (≈ 4.72 µM) | 0.8 | 2.0 | 1.0 | 0.28 | 0.27 | 
11 | C[C@H](CCCOS(=O)(=O)O)[C@H]1CC[C@H]2[C@@H]3[C@H](OCCCN)C[C@@H]4C[C@H](OCCCN)CC[C@]4(C)[C@H]3C[C@H](OCCCN)[C@]12C [Compound 132] |  |  |  |  |  |  |  |  |  | MIC ([3]; Escherichia coli, ATCC10798, E. coli (ATCC 10798), read-out: MIC): 60 µg/mL (≈ 92.9 µM); concentration required to lower the MIC of erythromycin to 1 µg/mL ([4]; E. coli (ATCC 10798)): 4.0 µg/mL
12 | C[C@H](CCCOCCC[C@@H](C)[C@H]1CC[C@H]2[C@@H]3[C@H](OCCCN)C[C@@H]4C[C@H](OCCCN)CC[C@]4(C)[C@H]3C[C@H](OCCCN)[C@]12C)[C@H]1CC[C@H]2[C@@H]3[C@H](OCCCN)C[C@@H]4C[C@H](OCCCN)CC[C@]4(C)[C@H]3C[C@H](OCCCN)[C@]12C [Compound 12] | 4 (≈ 3.59 µM) | 1.5 |  |  |  |  |  |  |  | MBC [3, 13]: 4 µg/mL (≈ 3.59 µM); MBC [4, 15]: 2.5 µg/mL
